# Patent publication US20250185948A1, “WEARABLE APTAMER MICRONEEDLE PATCH FOR CONTINUOUS MINIMALLY-INVASIVE BIOMONITORING” (THE REGENTS OF THE UNIVERSITY OF CALIFORNIA, priority 2022, published 2025)
# Key:
# [1] = AMPatch in-vivo tobramycin PK monitoring in a rat model (ISF sensor readout and blood LC-MS/MS); parameters: species or system Sprague-Dawley rats; settings: intravenous tobramycin 20 mg/kg, different animals
# Source text: More particularly, the developed AMPatch was applied to monitor the PK profile of tobramycin in dermal ISF using a rat model and investigate the drug's ISF-blood correlation. Accordingly, used were three healthy adult Sprague-Dawley rats and the animals were anesthetized during the test (FIG. 4A). An AMPatch was placed at the back of the animal to render continuous ISF monitoring upon intravenous tobramycin injection. […] To investigate the drug's ISF-blood correlation, blood samples were simultaneously collected before and at intermittent time points after drug injection, followed by standard lab analysis (liquid chromatography with tandem mass spectrometry, LC-MS/MS). The acquired PK readouts were interpreted using a two compartment-based pharmacokinetic model, which captures the drug's distribution (e.g., from blood to ISF) and elimination processes (FIG. 4B). The blood-ISF correlation was evaluated by comparing the drug's circulating AUC (AUC_blood) versus the AUC and the maximum concentrations of ISF drug, where the ISF concentrations can be equivalently presented by the measured sensor response (denoting AUC_ISF and R_max, respectively).
# An AMPatch according to embodiments was first deployed in a manner to assess its capability of tracking the ISF PK profile in-vivo. […]
# [2] = tobramycin treatments; cited from earlier work
compound,measurement,setting,value
NC[C@H]1O[C@H](O[C@H]2[C@H](O)[C@@H](O[C@H]3O[C@H](CO)[C@@H](O)[C@H](N)[C@H]3O)[C@H](N)C[C@@H]2N)[C@H](N)C[C@@H]1O [tobramycin],AUC,"[1]; Sprague-Dawley, blood LC-MS/MS, read-out: AUC_blood",176 µM·h
same,AUC_ISF,"[1]; dermal ISF, AMPatch sensor response",7.7±5.2 %·h
same,rate of nephrotoxicity incidence,[2],12%
